From ChEMBL document CHEMBL1201862, “PubChem BioAssay data set” (2004)
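Following 48 hours of exposure in 96-well plates, responses at five concentrations were used to interpolate endpoints linearly. The concentration for 50% growth inhibition is given as GI50.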 Activity calls are given as the source filed them. No stated cut-off is given here; in the data, active = GI50 up to about 1.1 µM and inactive = higher.

What was measured:
Experiment in all cases: inhibition of tumour cell growth, NCI panel, 48 h
SN12C = tested on: SN12C
NCI-H460 = tested on: NCI-H460
SF-268 = tested on: SF-268
Malme-3M = tested on: Malme-3M
DU-145 = tested on: DU-145
UACC-62 = tested on: UACC-62
MDA-N = tested on: MDA-N
OVCAR-4 = tested on: OVCAR-4
OVCAR-3 = tested on: OVCAR-3
HL-60 = tested on: HL-60
RPMI-8226 = tested on: RPMI-8226
HCC 2998 = tested on: HCC 2998
NCI-H226 = tested on: NCI-H226
HT-29 = tested on: HT-29
TK-10 = tested on: TK-10
M14 = tested on: M14
EKVX = tested on: EKVX
MCF7 = tested on: MCF7
MDA-MB-435 = tested on: MDA-MB-435
MOLT-4 = tested on: MOLT-4

Compound | GI50 (SN12C) | GI50 (NCI-H460) | GI50 (SF-268) | GI50 (Malme-3M) | GI50 (DU-145) | GI50 (UACC-62) | GI50 (MDA-N) | GI50 (OVCAR-4) | GI50 (OVCAR-3) | GI50 (HL-60) | GI50 (RPMI-8226) | GI50 (HCC 2998) | GI50 (NCI-H226) | GI50 (HT-29) | GI50 (TK-10) | GI50 (M14) | GI50 (EKVX) | GI50 (MCF7) | GI50 (MDA-MB-435) | GI50 (MOLT-4)
Cc1cc(=O)oc2cc(OS(C)(=O)=O)ccc12 | > 100 µM (inactive) | > 100 µM (inactive) | > 100 µM (inactive) | > 100 µM (inactive) | > 100 µM (inactive) | > 100 µM (inactive) | > 100 µM (inactive) | > 100 µM (inactive) | > 100 µM (inactive) | > 100 µM (inactive) | > 100 µM (inactive) | > 100 µM (inactive) | > 100 µM (inactive) | > 100 µM (inactive) | > 100 µM (inactive) | > 100 µM (inactive) | > 100 µM (inactive) | > 100 µM (inactive) | > 100 µM (inactive) | –
CCCCCCN1CCc2c(C)c(C#N)c3nc4ccccc4n3c21 | > 100 µM (inactive) | 16 µM (inactive) | > 100 µM (inactive) | 83.2 µM (inactive) | > 100 µM (inactive) | 30.1 µM (inactive) | 22.7 µM (inactive) | 25.9 µM (inactive) | 11.6 µM (inactive) | 11.7 µM (inactive) | – | 49.3 µM (inactive) | > 100 µM (inactive) | 18.5 µM (inactive) | > 100 µM (inactive) | 63.5 µM (inactive) | – | 14.5 µM (inactive) | 17 µM (inactive) | –
CC1CCC2C(C)C3C(CC4C5CC=C6CC(OC7OC(CO)C(O)C(OC8OC(CO)C(O)C(O)C8O)C7OC7OC(C)C(O)C(O)C7O)CCC6(C)C5CCC43C)N2C1 (stereo unspecified) | 11.1 µM (inactive) | 18.5 µM (inactive) | 15.9 µM (inactive) | 27.7 µM (inactive) | 18.9 µM (inactive) | 13.8 µM (inactive) | 10.7 µM (inactive) | 8.13 µM (inactive) | 17.4 µM (inactive) | 8.24 µM (inactive) | 19.9 µM (inactive) | 18.1 µM (inactive) | 20.8 µM (inactive) | 12 µM (inactive) | 16.3 µM (inactive) | 4.67 µM (inactive) | 9.27 µM (inactive) | 13.8 µM (inactive) | 9.12 µM (inactive) | 28.6 µM (inactive)
COc1cccc(/C=C/C2=NN(c3cccc(S(=O)(=O)O)c3)C3(C2)SCC(=O)N3c2nc3ccccc3s2)c1 (stereo unspecified) | 33.3 µM (inactive) | 35.7 µM (inactive) | 33.3 µM (inactive) | 47 µM (inactive) | 30.6 µM (inactive) | 36 µM (inactive) | 62.7 µM (inactive) | 49.4 µM (inactive) | – | 26.7 µM (inactive) | 22.5 µM (inactive) | 95.1 µM (inactive) | 23.8 µM (inactive) | 64.7 µM (inactive) | 28.8 µM (inactive) | 80.9 µM (inactive) | 69.2 µM (inactive) | 27.6 µM (inactive) | 24.4 µM (inactive) | 28.2 µM (inactive)
CCOc1ccc2c(C)cc(=O)oc2c1 | > 100 µM (inactive) | > 100 µM (inactive) | > 100 µM (inactive) | > 100 µM (inactive) | > 100 µM (inactive) | > 100 µM (inactive) | > 100 µM (inactive) | > 100 µM (inactive) | > 100 µM (inactive) | > 100 µM (inactive) | > 100 µM (inactive) | > 100 µM (inactive) | > 100 µM (inactive) | > 100 µM (inactive) | – | > 100 µM (inactive) | > 100 µM (inactive) | > 100 µM (inactive) | > 100 µM (inactive) | > 100 µM (inactive)
NC(=O)CC1OC(=O)Cc2cc3c(c(O)c21)C(=O)c1c(O)cccc1C3=O (stereo unspecified) | > 100 µM (inactive) | 89.5 µM (inactive) | – | > 100 µM (inactive) | > 100 µM (inactive) | > 100 µM (inactive) | > 100 µM (inactive) | > 100 µM (inactive) | – | > 100 µM (inactive) | – | > 100 µM (inactive) | > 100 µM (inactive) | > 100 µM (inactive) | > 100 µM (inactive) | > 100 µM (inactive) | > 100 µM (inactive) | > 100 µM (inactive) | > 100 µM (inactive) | 71.3 µM (inactive)
CCOC(=O)CCC(NC(=O)c1ccc(OCc2ccc3nc(OC)c(OC)nc3c2)cc1)C(=O)OCC (stereo unspecified) | 45.3 µM (inactive) | 22.6 µM (inactive) | 57.7 µM (inactive) | 21.4 µM (inactive) | 69.5 µM (inactive) | 30.4 µM (inactive) | 24 µM (inactive) | – | 20.2 µM (inactive) | 31.7 µM (inactive) | 70.8 µM (inactive) | 50.1 µM (inactive) | > 100 µM (inactive) | > 100 µM (inactive) | 35.2 µM (inactive) | 21.9 µM (inactive) | – | 35.1 µM (inactive) | 27.3 µM (inactive) | 22.7 µM (inactive)
COC1=C(C)C(=O)c2c(c(COC(N)=O)c3n2CC(OC(C)=O)C3OC(C)=O)C1=O (stereo unspecified) | 0.0944 µM (active) | < 0.01 µM (active) | 0.0766 µM (active) | 0.0493 µM (active) | 0.0251 µM (active) | 0.0857 µM (active) | 0.126 µM (active) | 0.279 µM (active) | 0.09 µM (active) | < 0.0192 µM (active) | 0.0577 µM (active) | 0.111 µM (active) | 0.297 µM (active) | 0.036 µM (active) | 0.388 µM (active) | 0.0977 µM (active) | 0.202 µM (active) | 0.0301 µM (active) | 0.165 µM (active) | 0.242 µM (active)
C=C1OC(c2ccccc2NC)=NC12CCCCC2 | > 100 µM (inactive) | > 100 µM (inactive) | > 100 µM (inactive) | > 100 µM (inactive) | > 100 µM (inactive) | > 100 µM (inactive) | > 100 µM (inactive) | > 100 µM (inactive) | > 100 µM (inactive) | > 100 µM (inactive) | – | > 100 µM (inactive) | > 100 µM (inactive) | > 100 µM (inactive) | > 100 µM (inactive) | > 100 µM (inactive) | > 100 µM (inactive) | > 100 µM (inactive) | > 100 µM (inactive) | > 100 µM (inactive)
CC(=N\N=C\c1ccccn1)/C(C)=N/N=C/c1ccccn1 | > 100 µM (inactive) | > 100 µM (inactive) | > 100 µM (inactive) | > 100 µM (inactive) | > 100 µM (inactive) | – | 51.6 µM (inactive) | 94.4 µM (inactive) | > 100 µM (inactive) | > 100 µM (inactive) | > 100 µM (inactive) | > 100 µM (inactive) | > 100 µM (inactive) | > 100 µM (inactive) | > 100 µM (inactive) | > 100 µM (inactive) | > 100 µM (inactive) | 89.7 µM (inactive) | 42.9 µM (inactive) | > 10 µM (inactive)
CC(NC(=O)C1(N)CCCC1)C(=O)O (stereo unspecified) | > 100 µM (inactive) | – | > 100 µM (inactive) | > 100 µM (inactive) | > 100 µM (inactive) | > 100 µM (inactive) | > 100 µM (inactive) | > 100 µM (inactive) | > 100 µM (inactive) | > 100 µM (inactive) | > 100 µM (inactive) | > 100 µM (inactive) | > 100 µM (inactive) | > 100 µM (inactive) | > 100 µM (inactive) | > 100 µM (inactive) | > 100 µM (inactive) | > 100 µM (inactive) | > 100 µM (inactive) | > 100 µM (inactive)
CC(C)C(OC(=O)c1ccc(NCC2=CC(=O)C=CC2=O)cc1)C(C)C | 9.16 µM (inactive) | 14.6 µM (inactive) | 12.1 µM (inactive) | 8.89 µM (inactive) | 18.4 µM (inactive) | 6.44 µM (inactive) | 5.2 µM (inactive) | 3.64 µM (inactive) | 4.12 µM (inactive) | 1.25 µM (inactive) | 3.15 µM (inactive) | 13.6 µM (inactive) | 4.24 µM (inactive) | 10.7 µM (inactive) | 4.25 µM (inactive) | 6.52 µM (inactive) | 8.26 µM (inactive) | 7.93 µM (inactive) | 4.75 µM (inactive) | 2.01 µM (inactive)
NC(=O)NC(=O)c1cccc(C(=O)NC(N)=O)n1 | > 100 µM (inactive) | > 100 µM (inactive) | > 100 µM (inactive) | > 100 µM (inactive) | > 100 µM (inactive) | > 100 µM (inactive) | > 100 µM (inactive) | > 100 µM (inactive) | > 100 µM (inactive) | > 100 µM (inactive) | > 100 µM (inactive) | > 100 µM (inactive) | > 100 µM (inactive) | > 100 µM (inactive) | > 100 µM (inactive) | > 100 µM (inactive) | > 100 µM (inactive) | > 100 µM (inactive) | > 100 µM (inactive) | > 100 µM (inactive)
Cc1cccc(/C=N/NC(=S)N2CCCCCC2)n1 | 0.101 µM (active) | 0.0977 µM (active) | < 0.01 µM (active) | 0.313 µM (active) | 0.254 µM (active) | 0.163 µM (active) | 0.406 µM (active) | – | < 0.01 µM (active) | < 0.01 µM (active) | < 0.01 µM (active) | 0.468 µM (active) | 1.33 µM (inactive) | < 0.01 µM (active) | – | < 0.0271 µM (active) | 0.288 µM (active) | < 0.01 µM (active) | 1.3 µM (inactive) | < 0.01 µM (active)
COc1ccc(-c2coc3cc(O)ccc3c2=O)cc1 [FORMONONETIN] | > 100 µM (inactive) | > 100 µM (inactive) | > 100 µM (inactive) | > 100 µM (inactive) | > 100 µM (inactive) | > 100 µM (inactive) | > 100 µM (inactive) | – | > 100 µM (inactive) | > 100 µM (inactive) | – | > 100 µM (inactive) | > 100 µM (inactive) | > 100 µM (inactive) | > 100 µM (inactive) | > 100 µM (inactive) | – | > 100 µM (inactive) | > 100 µM (inactive) | > 100 µM (inactive)
